Test results: US20220403001A1, “PDE5 DERIVED REGULATORY CONSTRUCTS AND METHODS OF USE IN IMMUNOTHERAPY” (Obsidian Therapeutics, Inc., priority 2018, published 2022)
Values belong to the substance of their own block, whether it stands above or below them.

Assays:
hPDE5 mutants [1] = assay: GFP expression (MFI) by FACS in HEK293 cells expressing hPDE5 constructs
Experimental: The mutant library was ligated in frame with an AcGFP reporter at C-terminus and cloned into pLVX-IRES—Puro vectors. […] DNA was extracted from the cell pool, cloned into vectors, and transformed into E. coli. Individual clones were sequenced and cloned in frame with a linker [sequence] […] HEK293 cells were transduced with individual clones and selected with puromycin.
The GFP expression in cells expressing hPDE5 constructs was measured by FACS.
The stability of hPDE5 mutants was measured using FACS and mean fluorescence intensity (MFI) of GFP was calculated.

hPDE5 mutants [2] = biological target: T1, hPDE5 mutants (Homo sapiens, UniProt O76074); assay: GFP MFI by FACS in HCT116 cells transduced with hPDE5 constructs; type: cell-based
Experimental: (§1) Desirable qualities of a DD include, low expression of the SRE in the absence of ligand and ligand dependent stabilization of the SRE. Constructs were generated using DDs linked to GFP using an SG linker. […] The mean fluorescence intensity (MFI) of GFP was analyzed by FACS. […] Destabilizing mutation coefficient less than 1 are desirable.
(§2) Mean fluorescence intensity (MFI) was measured by FACS. […] Destabilizing mutation coefficient ratios less than 1 are desirable.
(§3) Mean fluorescence intensity (MFI) was measured by FACS. […] Destabilizing mutation co-efficient ratios less than 1 are desirable.
(§4) Mean fluorescence intensity (MFI) was measured by FACS. […] Destabilizing mutation coefficient less than 1 are desirable.
as §4
(§5) Mean fluorescence intensity (MFI) of GFP was measured by FACS.
(§6) Mean fluorescence intensity (MFI) was measured by FACS.
(§7) The media containing the ligand was removed and fresh media without the ligand was added.
(§8) The properties of the DDs were analyzed in the presence and absence of ligands via FACS as previously described.
(§9) GFP fluorescence was measured by FACS.
(§10) The properties of the DDs were analyzed via FACS both in the presence and absence of ligands.
as §9

hPDE5 mutants [3] = assay: as above; type: cell-based, human; conditions: for MFI: 48 hours, HCT 116 cells
Experimental: as §1, §2, §3, §4, §4, §5, §6, §7, §8, §9, §10, §9

hPDE5 mutants [4] = biological target: T1, hPDE5 mutants; assay: Western blot of AcGFP/GFP protein levels in HCT 116 cells expressing hPDE5 mutants; type: cell-based; parameters: GFP protein levels (western blot); fused on or other part: AcGFP reporter through a linker; conditions: vardenafil vs DMSO, HCT 116, R732 mutants
Experimental: Protein expression analysis of the combination mutants was performed in parallel via western blot. […] GAPDH levels were also analyzed to ensure even protein loading.

[5] = Sildenafil 0.0005 μM, 48 h, HEK293
[6] = Sildenafil 3.33 μM, 48 h, HEK293
[7] = Sildenafil 10 μM, 48 h, HEK293 (dose titration)
[8] = Sildenafil 10 μM, 48 h, HEK293 (time course)
[9] = Vardenafil 0.0005 μM, 48 h, HEK293
[10] = Vardenafil 3.33 μM, 48 h, HEK293
[11] = Vardenafil (10 μM), 48 h, Table 25, cell line not given in table

Substance: OT-001083: hPDE5-Y728L AcGFP construct
MFI (hPDE5 mutants [1]; [5]): 4422 | Stabilization ratio (hPDE5 mutants [1]; [5]): 1.01 | MFI (hPDE5 mutants [1]; [6]): 17960 | Stabilization ratio (hPDE5 mutants [1]; [6]): 4.09 | MFI (hPDE5 mutants [1]; Sildenafil 10 μM, 2 h, HEK293): 7290 | Stabilization ratio (hPDE5 mutants [1]; Sildenafil 10 μM, 2 h, HEK293): 1.37 | MFI (hPDE5 mutants [1]; Sildenafil 10 μM, 4 h, HEK293): 8675 | Stabilization ratio (hPDE5 mutants [1]; Sildenafil 10 μM, 4 h, HEK293): 1.64 | MFI (hPDE5 mutants [1]; Sildenafil 10 μM, 6 h, HEK293): 10929 | Stabilization ratio (hPDE5 mutants [1]; Sildenafil 10 μM, 6 h, HEK293): 2.06 | MFI (hPDE5 mutants [1]; Sildenafil 10 μM, 16 h, HEK293): 19034 | Stabilization ratio (hPDE5 mutants [1]; Sildenafil 10 μM, 16 h, HEK293): 3.59 | MFI (hPDE5 mutants [1]; Sildenafil 10 μM, 24 h, HEK293): 27246 | Stabilization ratio (hPDE5 mutants [1]; Sildenafil 10 μM, 24 h, HEK293): 5.14 | MFI (hPDE5 mutants [1]; [7]): 32480 | Stabilization ratio (hPDE5 mutants [1]; [7]): 7.40 | MFI (hPDE5 mutants [1]; [8]): 34796 | Stabilization ratio (hPDE5 mutants [1]; [8]): 6.56 | MFI (hPDE5 mutants [1]; [9]): 7894 | Stabilization ratio (hPDE5 mutants [1]; [9]): 0.99 | MFI (hPDE5 mutants [1]; [10]): 134306 | Stabilization ratio (hPDE5 mutants [1]; [10]): 16.85 | MFI (hPDE5 mutants [1]; Vardenafil 10 μM, 48 h, HEK293): 166236 | Stabilization ratio (hPDE5 mutants [1]; Vardenafil 10 μM, 48 h, HEK293): 20.86 | Stabilization ratio (hPDE5 mutants [1]; Vardenafil (1 μM), 48 h, Table 25, cell line not given in table): 13.26 | MFI (hPDE5 mutants [1]; Vardenafil (1 μM), 48 h, Table 25, cell line not given in table (HEK293, HCT-116, SKOV-3)): 68816 | MFI (hPDE5 mutants [1]; [11]): 123150 | Stabilization ratio (hPDE5 mutants [1]; [11]): 23.72

MFI (hPDE5 mutants [2]; Table 44, Vardenafil 0.01 μM, 48 h, HCT 116): 2551 | MFI (hPDE5 mutants [2]; Table 44, Vardenafil 0.04 μM, 48 h, HCT 116): 8345 | MFI (hPDE5 mutants [2]; Table 44, Vardenafil 3.33 μM, 48 h, HCT 116): 16783 | MFI (hPDE5 mutants [2]; Table 44, Vardenafil 10 μM, 48 h, HCT 116): 18945 | MFI (hPDE5 mutants [2]; Table 44, Vardenafil 30 μM, 48 h, HCT 116): 22548 | MFI (hPDE5 mutants [2]; Table 44, Vardenafil 1000 μM, 48 h, HCT 116): 22548 | MFI (hPDE5 mutants [2]; Table 45, Sildenafil 0.01 μM, 48 h, HCT 116): 808 | MFI (hPDE5 mutants [2]; Table 45, Sildenafil 0.04 μM, 48 h, HCT 116): 1025 | MFI (hPDE5 mutants [2]; Table 45, Sildenafil 3.33 μM, 48 h, HCT 116): 3769 | MFI (hPDE5 mutants [2]; Table 45, Sildenafil 10 μM, 48 h, HCT 116): 4716 | MFI (hPDE5 mutants [2]; Table 45, Sildenafil 30 μM, 48 h, HCT 116): 5694 | MFI (hPDE5 mutants [2]; Table 45, Sildenafil 1000 μM, 48 h, HCT 116): 5694 | MFI (hPDE5 mutants [2]; Tadalafil 0.01 μM, 48 hours, HCT 116 cells): 752 | Vardenafil Stabilization ratio (hPDE5 mutants [2]; hotspot constructs, 1 μM Vardenafil): 4.87 | Sildenafil Stabilization ratio (hPDE5 mutants [2]; hotspot constructs, 10 μM Sildenafil): 1.21 | GFP by FACS, Sildenafil 10 μM (hPDE5 mutants [2]; hotspot constructs, HCT116): 348 | GFP by FACS, Vardenafil 1 μM (hPDE5 mutants [2]; hotspot constructs, HCT116): 853 | GFP protein levels (western blot) (hPDE5 mutants [4]): strong stabilization of GFP levels
Substance: OT-001187: hPDE5 R732A AcGFP construct
MFI (hPDE5 mutants [3]; Tadalafil 11.11 μM): 5126 | MFI (hPDE5 mutants [3]; Tadalafil 33.33 μM): 6264 | MFI (hPDE5 mutants [3]; Tadalafil 100 μM): 6301 | MFI (hPDE5 mutants [3]; Tadalafil 1000 μM): 6301 | Sildenafil Destabilizing mutation coefficient (hPDE5 mutants [3]; hotspot constructs, DMSO control of Sildenafil, vs OT-001075): 0.29 | Vardenafil Destabilizing mutation coefficient (hPDE5 mutants [3]; hotspot constructs, DMSO control of Vardenafil, vs OT-001075): 1.09 | GFP by FACS, Sildenafil 0 μM (DMSO) (hPDE5 mutants [3]; hotspot constructs, HCT116, DMSO control of Sildenafil): 288 | GFP by FACS, Vardenafil 0 μM (DMSO) (hPDE5 mutants [3]; hotspot constructs, HCT116, DMSO control of Vardenafil): 175
